Test results: ChEMBL document CHEMBL1201862, “PubChem BioAssay data set” (2004)
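96-well plates; 48 h exposure; 5 concentrations. Endpoints by linear interpolation between flanking doses. Not reached: highest tested concentration assigned. The concentration for 50% growth inhibition is given as GI50.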 The source made the active and inactive calls. No stated cut-off is given here; in the data, active = GI50 up to about 1.1 µM and inactive = higher.

How the values were obtained:
Assay in all cases: NCI-60 cell line screen, 48 h
KM12 = tested on: KM12
IGROV-1 = tested on: IGROV-1
SF-295 = tested on: SF-295
BT-549 = tested on: BT-549
U-251 = tested on: U-251
NCI-H522 = tested on: NCI-H522
K562 = tested on: K562
SR = tested on: SR
NCI/ADR-RES = tested on: NCI/ADR-RES
NCI-H226 = tested on: NCI-H226
HCT-15 = tested on: HCT-15
UO-31 = tested on: UO-31
TK-10 = tested on: TK-10
SW-620 = tested on: SW-620
ACHN = tested on: ACHN
DU-145 = tested on: DU-145
SK-MEL-5 = tested on: SK-MEL-5
NCI-H23 = tested on: NCI-H23
NCI-H460 = tested on: NCI-H460

Structure (SMILES) | GI50 (KM12) | GI50 (IGROV-1) | GI50 (SF-295) | GI50 (BT-549) | GI50 (U-251) | GI50 (NCI-H522) | GI50 (K562) | GI50 (SR) | GI50 (NCI/ADR-RES) | GI50 (NCI-H226) | GI50 (HCT-15) | GI50 (UO-31) | GI50 (TK-10) | GI50 (SW-620) | GI50 (ACHN) | GI50 (DU-145) | GI50 (SK-MEL-5) | GI50 (NCI-H23) | GI50 (NCI-H460)
C=CC1ON(C)CCc2cc(OC)c(OC)cc21 (stereo unspecified) | > 100 µM (inactive) | > 100 µM (inactive) | > 100 µM (inactive) | > 100 µM (inactive) | > 100 µM (inactive) | > 100 µM (inactive) | > 100 µM (inactive) | > 100 µM (inactive) | > 100 µM (inactive) | > 100 µM (inactive) | > 100 µM | > 100 µM (inactive) | > 100 µM (inactive) | > 100 µM (inactive) | > 100 µM (inactive) | > 100 µM (inactive) | > 100 µM (inactive) | > 100 µM (inactive) | > 100 µM (inactive)
Cc1cc(C)c2c(=O)n(CC(O)CN3CCN(CCOCCO)CC3)sc2n1 (stereo unspecified) | 22 µM (inactive) | 43.9 µM (inactive) | > 100 µM (inactive) | 16.6 µM (inactive) | 18.1 µM (inactive) | 14.6 µM (inactive) | 37.3 µM (inactive) | 25.8 µM (inactive) | > 100 µM (inactive) | > 100 µM (inactive) | 42.1 µM | 20.7 µM (inactive) | 17.5 µM (inactive) | 25.6 µM (inactive) | 20 µM (inactive) | 30.2 µM (inactive) | 15.1 µM (inactive) | 15.3 µM (inactive) | 20.2 µM (inactive)
c1cc(-c2ccc(Oc3ccc(-c4ccncc4)cc3)cc2)ccn1 | 5.22 µM (inactive) | 7.4 µM (inactive) | 5.96 µM (inactive) | 5.07 µM (inactive) | 4.01 µM (inactive) | 6.12 µM (inactive) | 2.5 µM (inactive) | 3.15 µM (inactive) | 3.01 µM (inactive) | 27.6 µM (inactive) | 3.43 µM | 7.21 µM (inactive) | 7.18 µM (inactive) | 4.37 µM (inactive) | 9.48 µM (inactive) | 11.4 µM (inactive) | 2.2 µM (inactive) | 3.18 µM (inactive) | 3.93 µM (inactive)
O=C(C#Cc1ccccc1)C1=Cc2ccccc2OC1 | 4.25 µM (inactive) | 2.38 µM (inactive) | 20.7 µM (inactive) | 2.16 µM (inactive) | 3.6 µM (inactive) | 1.37 µM (inactive) | 2.61 µM (inactive) | 7.23 µM (inactive) | 2.79 µM (inactive) | 2.55 µM (inactive) | 2.37 µM | 2.06 µM (inactive) | 1.9 µM (inactive) | 2.22 µM (inactive) | 2.17 µM (inactive) | 5.53 µM (inactive) | 2.08 µM (inactive) | 2.14 µM (inactive) | 4.83 µM (inactive)
O=C1C(N2CCN(CCOCCO)CC2)=C(Cl)C(=O)c2ncccc21 | > 10 µM (inactive) | 16.9 µM (inactive) | > 10 µM (inactive) | 4.89 µM (inactive) | 18.7 µM (inactive) | 2.08 µM (inactive) | 3.2 µM (inactive) | > 10 µM (inactive) | 37.4 µM (inactive) | > 10 µM (inactive) | 18.1 µM | 17.7 µM (inactive) | 29.4 µM (inactive) | 23 µM (inactive) | 19.1 µM (inactive) | 52.7 µM (inactive) | 16.6 µM (inactive) | 20.3 µM (inactive) | 75.2 µM (inactive)
O=C(Nc1ccccc1)N(CCN(Cc1ccccc1)C(=O)Nc1ccccc1)CCN(Nc1ccccc1)C(=O)Nc1ccccc1 | > 100 µM (inactive) | > 100 µM (inactive) | > 100 µM (inactive) | > 100 µM (inactive) | > 100 µM (inactive) | > 100 µM (inactive) | > 100 µM (inactive) | > 100 µM (inactive) | > 100 µM (inactive) | > 100 µM (inactive) | > 100 µM | > 100 µM (inactive) | > 100 µM (inactive) | > 100 µM (inactive) | > 100 µM (inactive) | > 100 µM (inactive) | > 100 µM (inactive) | > 100 µM (inactive) | > 100 µM (inactive)
CCCn1c(SC)nc(COC(=O)NC)c1COC(=O)NC | > 100 µM (inactive) | > 100 µM (inactive) | > 100 µM (inactive) | > 100 µM (inactive) |  | > 100 µM (inactive) | > 100 µM (inactive) | > 100 µM (inactive) | > 100 µM (inactive) | > 100 µM (inactive) | > 100 µM | > 100 µM (inactive) | > 100 µM (inactive) | > 100 µM (inactive) | > 100 µM (inactive) | > 100 µM (inactive) | > 100 µM (inactive) | > 100 µM (inactive) | > 100 µM (inactive)
O=C1CCC2=C(CCC2)N1CCc1ccc2c(c1)OCO2 | 62.4 µM (inactive) | 58.7 µM (inactive) | 55.3 µM (inactive) | 20.8 µM (inactive) | 45.7 µM (inactive) | 61.1 µM (inactive) | 25.7 µM (inactive) | 30.9 µM (inactive) | 43 µM (inactive) | 20.5 µM (inactive) | 43.1 µM | 21.6 µM (inactive) | 76.9 µM (inactive) | > 100 µM (inactive) | 77.3 µM (inactive) | > 100 µM (inactive) | 24.5 µM (inactive) | 38 µM (inactive) | 48.2 µM (inactive)
COCOc1cc(OC)c(Br)cc1C/C(=N/O)C(=O)OC | > 100 µM (inactive) | 56.4 µM (inactive) | > 100 µM (inactive) | 70.1 µM (inactive) | > 100 µM (inactive) | 37.9 µM (inactive) | 49.7 µM (inactive) | 34.7 µM (inactive) | 34 µM (inactive) | > 100 µM (inactive) | > 100 µM | 53.7 µM (inactive) | 35.1 µM (inactive) | > 100 µM (inactive) | > 100 µM (inactive) | > 100 µM (inactive) | 67.8 µM (inactive) | 90.4 µM (inactive) | 71.9 µM (inactive)
O=c1ssc(Cl)c1Nc1c(Cl)ssc1=O | 17.3 µM (inactive) | 18.2 µM (inactive) | 41.4 µM (inactive) | 18.7 µM (inactive) | 19.5 µM (inactive) | 19.6 µM (inactive) | 6.44 µM (inactive) | 3.62 µM (inactive) | 27.2 µM (inactive) | 28.4 µM (inactive) | 18.6 µM | 14.4 µM (inactive) | 19 µM (inactive) | 15.8 µM (inactive) | > 40 µM (inactive) | 17.3 µM (inactive) | 17 µM (inactive) | 19.9 µM (inactive) | 18.8 µM (inactive)
c1c[nH]c(-c2cccc3nsnc23)c1 | 30.8 µM (inactive) | 22.8 µM (inactive) | > 100 µM (inactive) | > 100 µM (inactive) | > 100 µM (inactive) | > 100 µM (inactive) | > 100 µM (inactive) | 25.1 µM (inactive) | > 100 µM (inactive) | > 100 µM (inactive) | 15.7 µM | 44.6 µM (inactive) | 19.3 µM (inactive) | > 100 µM (inactive) | 71.9 µM (inactive) | > 100 µM (inactive) | > 100 µM (inactive) | > 100 µM (inactive) | 65.2 µM (inactive)
COC(=O)CCC(C)[C@H]1CCC2C3CC[C@@H]4CC5(CC[C@]4(C)C3C[C@H](OC(C)=O)[C@@]21C)OOC1(CCCCC1)OO5 (stereo partly specified) | 8.85 µM (inactive) | 2.12 µM (inactive) | 9.4 µM (inactive) | 27.6 µM (inactive) | 6.62 µM (inactive) | 6.01 µM (inactive) | 6.01 µM (inactive) | 3.33 µM (inactive) | 81.1 µM (inactive) | > 100 µM (inactive) | 11.9 µM | 2.67 µM (inactive) | > 100 µM (inactive) |  | 8.32 µM (inactive) | 7.87 µM (inactive) | 5.78 µM (inactive) | 9.55 µM (inactive) | 4.69 µM (inactive)
O=C(O)C1(Cc2ccccc2)Cc2cc3c(cc2C1)CCC3 | 68.4 µM (inactive) | > 100 µM (inactive) | > 100 µM (inactive) | > 100 µM (inactive) | 66.4 µM (inactive) | > 100 µM (inactive) | 72.9 µM (inactive) | > 100 µM (inactive) | 89.3 µM (inactive) | > 100 µM (inactive) | 52.6 µM | 95.3 µM (inactive) | > 100 µM (inactive) | > 100 µM (inactive) | > 100 µM (inactive) | > 100 µM (inactive) | > 100 µM (inactive) | > 100 µM (inactive) | 86.9 µM (inactive)
O=C(/C=C1/Nc2ccc([N+](=O)[O-])cc2N/C1=C/C(=O)c1ccccc1)c1ccccc1 | 59.4 µM (inactive) | 25.3 µM (inactive) | 15 µM (inactive) | 18.5 µM (inactive) | 13.5 µM (inactive) | 13.3 µM (inactive) | 32.8 µM (inactive) | 27.5 µM (inactive) | 18.3 µM (inactive) | 23.4 µM (inactive) | 11.5 µM | 18.6 µM (inactive) | 24.9 µM (inactive) |  | 39.8 µM (inactive) | 43.7 µM (inactive) | 38 µM (inactive) | 12.4 µM (inactive) | 13.7 µM (inactive)
O=C(CCc1cccc(O)c1)NCCc1cccc(O)c1 | > 100 µM (inactive) | > 100 µM (inactive) | > 100 µM (inactive) | > 100 µM (inactive) | > 100 µM (inactive) | > 100 µM (inactive) | > 100 µM (inactive) | > 100 µM (inactive) | > 100 µM (inactive) | > 100 µM (inactive) | > 100 µM | > 100 µM (inactive) | > 100 µM (inactive) |  | > 100 µM (inactive) | > 100 µM (inactive) | > 100 µM (inactive) | > 100 µM (inactive) | > 100 µM (inactive)
